{"source": "paper doi:10.1101/2021.04.08.439011v1", "about": "(biorxiv, 2021)", "conditions_in_all_cases": "0.1 µM; binder", "key": {"[1]": {"target": "CSNK1A1L (Homo sapiens, UniProt Q8N752)", "sequence (Q8N752 whole entry)": "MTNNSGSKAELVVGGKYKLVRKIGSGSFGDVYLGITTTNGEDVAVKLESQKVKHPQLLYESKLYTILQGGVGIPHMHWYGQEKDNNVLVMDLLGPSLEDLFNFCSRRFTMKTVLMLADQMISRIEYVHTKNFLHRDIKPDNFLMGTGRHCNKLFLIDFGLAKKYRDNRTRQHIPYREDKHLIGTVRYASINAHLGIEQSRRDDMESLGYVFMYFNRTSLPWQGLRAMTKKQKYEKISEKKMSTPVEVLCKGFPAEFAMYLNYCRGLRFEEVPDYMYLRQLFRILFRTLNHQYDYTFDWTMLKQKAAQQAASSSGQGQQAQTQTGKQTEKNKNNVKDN"}, "[2]": {"target": "MATK (Homo sapiens, UniProt P42679)"}, "[3]": {"target": "ALK(C1156Y) (Homo sapiens, UniProt Q9UM73, C1156Y)"}, "[4]": {"target": "PRKCH (Homo sapiens, UniProt P24723)"}, "[5]": {"target": "SIK1 (Homo sapiens, UniProt P57059)"}, "[6]": {"target": "STK35 (Homo sapiens, UniProt Q8TDR2)", "sequence (Q8TDR2 whole entry)": "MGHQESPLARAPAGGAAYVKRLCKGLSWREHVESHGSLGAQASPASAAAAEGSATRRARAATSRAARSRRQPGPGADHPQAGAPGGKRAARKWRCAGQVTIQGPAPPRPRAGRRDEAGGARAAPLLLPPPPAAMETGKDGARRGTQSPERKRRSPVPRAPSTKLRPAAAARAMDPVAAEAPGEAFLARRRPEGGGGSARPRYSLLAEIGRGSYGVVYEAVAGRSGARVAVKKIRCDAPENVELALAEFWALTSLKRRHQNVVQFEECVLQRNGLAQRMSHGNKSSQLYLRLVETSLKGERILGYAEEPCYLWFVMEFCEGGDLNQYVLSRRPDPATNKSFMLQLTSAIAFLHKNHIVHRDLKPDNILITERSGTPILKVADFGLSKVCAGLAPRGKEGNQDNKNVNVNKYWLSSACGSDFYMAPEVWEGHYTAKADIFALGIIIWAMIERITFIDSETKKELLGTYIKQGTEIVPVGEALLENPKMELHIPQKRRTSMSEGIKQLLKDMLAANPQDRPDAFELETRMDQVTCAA"}, "[7]": {"target": "AKT3 (Homo sapiens, UniProt Q9Y243)"}, "[8]": {"target": "ITK (Homo sapiens, UniProt Q08881)", "sequence (Q08881 whole entry)": "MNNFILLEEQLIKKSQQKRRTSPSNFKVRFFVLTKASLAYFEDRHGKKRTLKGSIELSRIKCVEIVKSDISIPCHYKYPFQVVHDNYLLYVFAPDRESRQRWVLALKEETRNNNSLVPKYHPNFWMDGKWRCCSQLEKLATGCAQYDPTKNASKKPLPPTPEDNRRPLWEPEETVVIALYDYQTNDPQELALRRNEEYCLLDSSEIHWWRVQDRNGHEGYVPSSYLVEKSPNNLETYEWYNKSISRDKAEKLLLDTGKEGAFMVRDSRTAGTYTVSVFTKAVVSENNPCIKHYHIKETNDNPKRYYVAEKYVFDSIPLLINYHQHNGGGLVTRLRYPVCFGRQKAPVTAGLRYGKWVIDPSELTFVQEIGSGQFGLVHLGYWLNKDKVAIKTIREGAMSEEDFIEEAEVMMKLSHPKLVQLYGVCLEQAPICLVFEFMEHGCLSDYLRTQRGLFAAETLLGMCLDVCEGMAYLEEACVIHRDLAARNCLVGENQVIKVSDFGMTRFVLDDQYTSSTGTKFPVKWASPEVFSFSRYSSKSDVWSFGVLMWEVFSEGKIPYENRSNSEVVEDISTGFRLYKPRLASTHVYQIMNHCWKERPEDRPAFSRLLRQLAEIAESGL"}, "[9]": {"target": "CAMK1 (Homo sapiens, UniProt Q14012)"}, "[10]": {"target": "PIK3CD (Homo sapiens, UniProt O00329)"}, "[11]": {"target": "RET(V804L) (Homo sapiens, UniProt P07949, V804L)"}, "[12]": {"target": "NEK3 (Homo sapiens, UniProt P51956)"}, "[13]": {"target": "FGFR4 (Homo sapiens, UniProt P22455)"}, "[14]": {"target": "PIK3CA(H1047Y) (Homo sapiens, UniProt P42336, H1047Y)"}, "[15]": {"target": "MINK (Homo sapiens, UniProt Q8N4C8)"}, "[16]": {"target": "PRKCI (Homo sapiens, UniProt P41743)"}, "[17]": {"target": "SGK (Homo sapiens, UniProt O00141)"}, "[18]": {"target": "LRRK2 (Homo sapiens, UniProt Q5S007)"}, "[19]": {"target": "STK16 (Homo sapiens, UniProt O75716)", "sequence (O75716 whole entry)": "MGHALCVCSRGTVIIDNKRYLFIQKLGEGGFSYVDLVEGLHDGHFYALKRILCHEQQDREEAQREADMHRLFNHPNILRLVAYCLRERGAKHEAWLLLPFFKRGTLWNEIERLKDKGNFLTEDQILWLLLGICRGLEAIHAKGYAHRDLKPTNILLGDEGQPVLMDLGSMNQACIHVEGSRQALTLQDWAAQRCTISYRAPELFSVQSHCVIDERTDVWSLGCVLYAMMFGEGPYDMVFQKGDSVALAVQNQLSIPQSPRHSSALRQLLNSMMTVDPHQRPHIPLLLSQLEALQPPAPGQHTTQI"}, "[20]": {"target": "JNK1 (Homo sapiens, UniProt P45983)", "sequence (P45983 whole entry)": "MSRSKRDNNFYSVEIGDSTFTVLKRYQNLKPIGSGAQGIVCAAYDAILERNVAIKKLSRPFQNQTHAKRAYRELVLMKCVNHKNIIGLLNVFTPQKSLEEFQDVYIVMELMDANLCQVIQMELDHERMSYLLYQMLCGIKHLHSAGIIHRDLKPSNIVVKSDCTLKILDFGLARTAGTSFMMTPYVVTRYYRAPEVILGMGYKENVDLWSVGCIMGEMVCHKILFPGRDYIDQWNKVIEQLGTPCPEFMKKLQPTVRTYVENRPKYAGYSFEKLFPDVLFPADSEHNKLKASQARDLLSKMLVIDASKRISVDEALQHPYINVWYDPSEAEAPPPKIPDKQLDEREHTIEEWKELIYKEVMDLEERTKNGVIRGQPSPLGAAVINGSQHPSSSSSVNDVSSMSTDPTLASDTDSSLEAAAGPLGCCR"}, "[21]": {"target": "AURKB (Homo sapiens, UniProt Q96GD4)", "sequence (Q96GD4 whole entry)": "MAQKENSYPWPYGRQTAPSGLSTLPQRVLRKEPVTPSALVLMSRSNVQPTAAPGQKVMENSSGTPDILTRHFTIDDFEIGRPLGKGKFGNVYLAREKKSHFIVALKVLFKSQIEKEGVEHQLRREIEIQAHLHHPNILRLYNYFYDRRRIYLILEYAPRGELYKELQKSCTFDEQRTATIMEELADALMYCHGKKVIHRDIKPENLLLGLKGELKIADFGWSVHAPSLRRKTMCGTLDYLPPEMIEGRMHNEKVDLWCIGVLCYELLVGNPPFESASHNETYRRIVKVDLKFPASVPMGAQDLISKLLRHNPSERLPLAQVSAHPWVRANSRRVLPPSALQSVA"}, "[22]": {"target": "MYO3A (Homo sapiens, UniProt Q8NEV4)", "sequence (Q8NEV4 whole entry)": "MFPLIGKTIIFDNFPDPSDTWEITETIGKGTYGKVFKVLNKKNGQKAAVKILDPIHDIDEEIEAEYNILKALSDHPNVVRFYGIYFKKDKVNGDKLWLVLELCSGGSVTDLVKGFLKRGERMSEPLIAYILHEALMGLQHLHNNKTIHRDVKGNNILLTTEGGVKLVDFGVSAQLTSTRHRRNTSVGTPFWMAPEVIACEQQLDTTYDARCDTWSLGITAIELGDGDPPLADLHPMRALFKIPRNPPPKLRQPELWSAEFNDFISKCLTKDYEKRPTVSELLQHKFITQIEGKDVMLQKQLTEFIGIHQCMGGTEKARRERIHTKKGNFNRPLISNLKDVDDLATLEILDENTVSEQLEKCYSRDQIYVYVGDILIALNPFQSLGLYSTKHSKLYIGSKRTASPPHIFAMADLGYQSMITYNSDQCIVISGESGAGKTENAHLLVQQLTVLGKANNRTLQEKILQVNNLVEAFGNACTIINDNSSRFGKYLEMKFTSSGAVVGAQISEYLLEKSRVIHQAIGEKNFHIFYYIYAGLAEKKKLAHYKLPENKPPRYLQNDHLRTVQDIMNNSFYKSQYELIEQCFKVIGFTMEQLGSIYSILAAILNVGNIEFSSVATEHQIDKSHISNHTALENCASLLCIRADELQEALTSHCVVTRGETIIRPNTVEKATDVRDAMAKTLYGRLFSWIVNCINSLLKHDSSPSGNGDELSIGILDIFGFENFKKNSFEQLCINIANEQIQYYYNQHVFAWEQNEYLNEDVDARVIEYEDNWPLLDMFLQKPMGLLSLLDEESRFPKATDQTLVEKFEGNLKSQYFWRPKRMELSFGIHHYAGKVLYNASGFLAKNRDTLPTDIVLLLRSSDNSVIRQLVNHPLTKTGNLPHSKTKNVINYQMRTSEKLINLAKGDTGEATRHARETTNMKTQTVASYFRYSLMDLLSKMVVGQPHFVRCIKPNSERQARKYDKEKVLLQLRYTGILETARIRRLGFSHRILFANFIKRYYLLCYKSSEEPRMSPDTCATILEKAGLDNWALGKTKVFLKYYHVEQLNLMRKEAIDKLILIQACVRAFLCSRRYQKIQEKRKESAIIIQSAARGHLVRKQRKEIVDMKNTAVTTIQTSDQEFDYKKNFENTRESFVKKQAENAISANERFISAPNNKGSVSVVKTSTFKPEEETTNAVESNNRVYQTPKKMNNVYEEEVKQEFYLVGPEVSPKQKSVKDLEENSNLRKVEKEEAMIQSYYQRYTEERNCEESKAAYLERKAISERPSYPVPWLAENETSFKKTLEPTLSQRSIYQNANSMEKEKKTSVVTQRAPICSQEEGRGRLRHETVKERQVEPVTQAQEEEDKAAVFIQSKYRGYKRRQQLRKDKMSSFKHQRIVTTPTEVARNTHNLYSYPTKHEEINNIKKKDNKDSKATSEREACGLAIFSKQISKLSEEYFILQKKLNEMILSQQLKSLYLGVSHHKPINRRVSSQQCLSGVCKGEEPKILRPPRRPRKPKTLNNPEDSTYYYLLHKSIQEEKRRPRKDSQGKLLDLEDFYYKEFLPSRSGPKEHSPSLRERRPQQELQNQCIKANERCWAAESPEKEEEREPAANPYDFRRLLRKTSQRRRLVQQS"}, "[23]": {"target": "PRKD3 (Homo sapiens, UniProt O94806)"}, "[24]": {"target": "ARK5 (Homo sapiens, UniProt O60285)"}, "[25]": {"target": "NIM1 (Homo sapiens, UniProt Q8IY84)"}, "[26]": {"target": "NIK (Homo sapiens, UniProt Q99558)"}, "[27]": {"target": "PRKX (Homo sapiens, UniProt P51817)"}, "[28]": {"target": "NEK6 (Homo sapiens, UniProt Q9HC98)"}, "[29]": {"target": "NDR2 (Homo sapiens, UniProt Q9Y2H1)"}, "[30]": {"target": "EPHA1 (Homo sapiens, UniProt P21709)"}, "[31]": {"target": "ERK4 (Homo sapiens, UniProt P31152)", "sequence (P31152 whole entry)": "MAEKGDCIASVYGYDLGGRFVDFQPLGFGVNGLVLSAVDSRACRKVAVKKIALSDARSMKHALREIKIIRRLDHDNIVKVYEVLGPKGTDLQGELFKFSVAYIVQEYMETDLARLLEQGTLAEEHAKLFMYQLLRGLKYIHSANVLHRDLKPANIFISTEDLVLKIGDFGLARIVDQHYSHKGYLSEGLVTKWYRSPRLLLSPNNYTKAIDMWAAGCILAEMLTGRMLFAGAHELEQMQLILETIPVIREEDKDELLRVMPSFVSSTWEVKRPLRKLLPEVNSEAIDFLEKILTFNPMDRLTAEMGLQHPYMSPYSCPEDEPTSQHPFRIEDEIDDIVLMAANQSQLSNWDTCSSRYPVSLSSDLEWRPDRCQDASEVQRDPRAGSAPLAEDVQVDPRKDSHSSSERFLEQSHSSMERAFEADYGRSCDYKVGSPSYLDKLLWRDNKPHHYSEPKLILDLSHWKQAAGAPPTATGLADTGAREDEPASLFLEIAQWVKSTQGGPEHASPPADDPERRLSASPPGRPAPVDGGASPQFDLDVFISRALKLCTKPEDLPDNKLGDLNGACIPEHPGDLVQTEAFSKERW"}}, "data": [{"smiles": "CNc1ncc2cc(-c3ccc(-c4cccc(C)n4)cc3Cl)c(=O)n(C[C@H]3OC[C@H](N)CO3)c2n1", "note": "[compound 6, G-5555]", "values": [{"measurement": "Percent Control", "setting": "[1]", "value": 100, "unit": "%"}, {"measurement": "Percent Control", "setting": "[2]", "value": 100, "unit": "%"}, {"measurement": "Percent Control", "setting": "[3]", "value": 100, "unit": "%"}, {"measurement": "Percent Control", "setting": "[4]", "value": 82, "unit": "%"}, {"measurement": "Percent Control", "setting": "[5]", "value": 1.4, "unit": "%"}, {"measurement": "Percent Control", "setting": "[6]", "value": 100, "unit": "%"}, {"measurement": "Percent Control", "setting": "[7]", "value": 95, "unit": "%"}, {"measurement": "Percent Control", "setting": "[8]", "value": 100, "unit": "%"}, {"measurement": "Percent Control", "setting": "[9]", "value": 100, "unit": "%"}, {"measurement": "Percent Control", "setting": "[10]", "value": 53, "unit": "%"}, {"measurement": "Percent Control", "setting": "[11]", "value": 94, "unit": "%"}, {"measurement": "Percent Control", "setting": "[12]", "value": 93, "unit": "%"}, {"measurement": "Percent Control", "setting": "[13]", "value": 100, "unit": "%"}, {"measurement": "Percent Control", "setting": "[14]", "value": 73, "unit": "%"}, {"measurement": "Percent Control", "setting": "[15]", "value": 77, "unit": "%"}, {"measurement": "Percent Control", "setting": "[16]", "value": 97, "unit": "%"}, {"measurement": "Percent Control", "setting": "[17]", "value": 99, "unit": "%"}, {"measurement": "Percent Control", "setting": "[18]", "value": 83, "unit": "%"}, {"measurement": "Percent Control", "setting": "[19]", "value": 100, "unit": "%"}, {"measurement": "Percent Control", "setting": "[20]", "value": 80, "unit": "%"}, {"measurement": "Percent Control", "setting": "[21]", "value": 72, "unit": "%"}, {"measurement": "Percent Control", "setting": "[22]", "value": 100, "unit": "%"}, {"measurement": "Percent Control", "setting": "[23]", "value": 95, "unit": "%"}, {"measurement": "Percent Control", "setting": "[24]", "value": 87, "unit": "%"}, {"measurement": "Percent Control", "setting": "[25]", "value": 89, "unit": "%"}, {"measurement": "Percent Control", "setting": "[26]", "value": 100, "unit": "%"}, {"measurement": "Percent Control", "setting": "[27]", "value": 100, "unit": "%"}, {"measurement": "Percent Control", "setting": "[28]", "value": 100, "unit": "%"}, {"measurement": "Percent Control", "setting": "[29]", "value": 100, "unit": "%"}, {"measurement": "Percent Control", "setting": "[30]", "value": 64, "unit": "%"}, {"measurement": "Percent Control", "setting": "[31]", "value": 100, "unit": "%"}]}]}
